Data from patent US20130225508A1, “PEPTIDE CAPABLE OF BINDING TO IMMUNOGLOBULIN” (priority 2010, published 2013).

Test system: adjuvant-induced arthritis
Experiment: Adjuvant arthritis rat model
Type: in vivo, Lewis/CrlCrlj rats
Design: key to Redness scores (left hind-limb) / Redness scores (right hind-limb): 0 = no redness, 4 = severe redness; key to Scores of swelling in the instep (left hind-limb) / Scores of swelling in the instep (right hind-limb): 0 = no swelling, 4 = severe swelling; key to Scores of swelling in knuckle joints (left hind-limb) / Scores of swelling in knuckle joints (right hind-limb): 0 = no swelling, 4 = swelling of all the digits
From the text: Male Lewis/CrlCrlj (SPF) rats were used to investigate the arthritis suppressing effect of a peptide of the present invention on adjuvant-induced arthritis. Forty-five rats were purchased from Charles River Laboratories Japan, Inc., and fed normal chow and allowed to acclimate for 7 days before used (the range of body weights was from 193.3 to 218.3 g at the beginning of use).
In an agate motor, dead tubercle bacilli (Mycobacterium butyricum; Lot No. 0260570, Difco) were pulverized. Then, liquid paraffin was added in small amounts to spread the pulverized bacilli well, so as to allow them to be emulsified at 1.0 mg/mL. The resultant emulsion was used after verification to ensure that the pulverized bacilli had been allowed to be finely emulsified, using an NM MICRONIZER (Nippon Seiki Co., Ltd.).
A right hind-limb of the respective rats was exposed, and 100 μL of the emulsion was intradermally injected once into a footpad of the right hind-limb using a 25G-needle attached syringe, to cause arthritis (day 0).
Each of the groups was comprised of 5 animals.
Arthritis was evaluated only for the hind-limbs, based on the criteria described below:
Score 0: no swelling Score 1: swelling of not more than two digits Score 2: swelling of three digits Score 3: swelling of four digits Score 4: swelling of all the digits
Score 0: no swelling Score 1: mild swelling Score 2: modest swelling Score 3: rather severe swelling Score 4: severe swelling
Score 0: no redness Score 1: mild redness Score 2: modest redness Score 3: rather severe redness Score 4: severe redness (iii) Measurement of Foot Volumes of Left And Right Hind-Limbs
Measurement was performed using a plethysmometer (UNICOM TK105). The increasing rate foot volume (percentage of paw swelling, paw swelling %) was calculated by the following formula:
Percent paw swelling (%)=[(Vt−Vo)/Vo]×100
In addition, in these examinations, the percent change of edema relative to day 10 post-adjuvant was calculated, in order to assess the effect of treatment with the test substances.
Data are expressed by mean±standard error. Since the uniformity of variance was not verified in testing between the negative and the positive control groups, testing for significant difference was performed by Aspin-Welch t-test. Since the uniformity of variance was not verified in testing for significant differences of the respective test-substance administered groups relative to the positive control group, assessment was performed by Dunnett's multiple comparison test after Kruskal-Wallis testing, using non-parametric procedures. Differences were considered to be statistically significant at p values of less than 0.05.

[1] = Day 0 post-adjuvant, 0.15 mg/kg oral from day 10
[2] = Day 0 post-adjuvant, 0.15 mg/kg oral, pre-administered group
[3] = Day 3 post-adjuvant, 0.15 mg/kg oral from day 10
[4] = Day 3 post-adjuvant, 0.15 mg/kg oral, pre-administered group
[5] = Day 7 post-adjuvant, 0.15 mg/kg oral from day 10
[6] = Day 7 post-adjuvant, 0.15 mg/kg oral, pre-administered group
[7] = Day 10 post-adjuvant, 0.15 mg/kg oral from day 10
[8] = Day 10 post-adjuvant, 0.15 mg/kg oral, pre-administered group
[9] = Day 14 post-adjuvant, 0.15 mg/kg oral from day 10
[10] = Day 14 post-adjuvant, 0.15 mg/kg oral, pre-administered group
[11] = Day 17 post-adjuvant, 0.15 mg/kg oral from day 10
[12] = Day 17 post-adjuvant, 0.15 mg/kg oral, pre-administered group
[13] = Day 21 post-adjuvant, 0.15 mg/kg oral from day 10
[14] = Day 21 post-adjuvant, 0.15 mg/kg oral, pre-administered group

CN(Cc1cnc2nc(N)nc(N)c2n1)c1ccc(C(=O)N[C@@H](CCC(=O)O)C(=O)O)cc1 [Methotrexate]
Redness scores (left hind-limb) [1]: 0.0 ± 0.0 | Redness scores (right hind-limb) [1]: 0.0 ± 0.0 | Scores of swelling in knuckle joints (left hind-limb) [1]: 0.0 ± 0.0 | Scores of swelling in knuckle joints (right hind-limb) [1]: 0.0 ± 0.0 | Scores of swelling in the instep (left hind-limb) [1]: 0.0 ± 0.0 | Scores of swelling in the instep (right hind-limb) [1]: 0.0 ± 0.0 | Total scores (left hind-limb) [1]: 0.0 ± 0.0 | Total scores (right hind-limb) [1]: 0.0 ± 0.0 | Redness scores (left hind-limb) [2]: 0.0 ± 0.0 | Redness scores (right hind-limb) [2]: 0.0 ± 0.0 | Scores of swelling in knuckle joints (left hind-limb) [2]: 0.0 ± 0.0 | Scores of swelling in knuckle joints (right hind-limb) [2]: 0.0 ± 0.0 | Scores of swelling in the instep (left hind-limb) [2]: 0.0 ± 0.0 | Scores of swelling in the instep (right hind-limb) [2]: 0.0 ± 0.0 | Total scores (left hind-limb) [2]: 0.0 ± 0.0 | Total scores (right hind-limb) [2]: 0.0 ± 0.0 | Redness scores (left hind-limb) [3]: 0.0 ± 0.0 | Redness scores (right hind-limb) [3]: 0.0 ± 0.0 | Scores of swelling in knuckle joints (left hind-limb) [3]: 0.0 ± 0.0 | Scores of swelling in knuckle joints (right hind-limb) [3]: 0.0 ± 0.0 | Scores of swelling in the instep (left hind-limb) [3]: 0.0 ± 0.0 | Scores of swelling in the instep (right hind-limb) [3]: 0.0 ± 0.0 | Total scores (left hind-limb) [3]: 0.0 ± 0.0 | Total scores (right hind-limb) [3]: 0.0 ± 0.0 | Redness scores (left hind-limb) [4]: 0.0 ± 0.0 | Redness scores (right hind-limb) [4]: 0.0 ± 0.0 | Scores of swelling in knuckle joints (left hind-limb) [4]: 0.0 ± 0.0 | Scores of swelling in knuckle joints (right hind-limb) [4]: 0.0 ± 0.0 | Scores of swelling in the instep (left hind-limb) [4]: 0.0 ± 0.0 | Scores of swelling in the instep (right hind-limb) [4]: 0.0 ± 0.0 | Total scores (left hind-limb) [4]: 0.0 ± 0.0 | Total scores (right hind-limb) [4]: 0.0 ± 0.0 | Redness scores (left hind-limb) [5]: 0.0 ± 0.0 | Redness scores (right hind-limb) [5]: 0.4 ± 0.2 | Scores of swelling in knuckle joints (left hind-limb) [5]: 0.4 ± 0.2 | Scores of swelling in knuckle joints (right hind-limb) [5]: 0.6 ± 0.2 | Scores of swelling in the instep (left hind-limb) [5]: 0.0 ± 0.0 | Scores of swelling in the instep (right hind-limb) [5]: 1.2 ± 0.2 | Total scores (left hind-limb) [5]: 0.4 ± 0.5 | Total scores (right hind-limb) [5]: 2.2 ± 0.8 | Redness scores (left hind-limb) [6]: 0.0 ± 0.0 | Redness scores (right hind-limb) [6]: 0.2 ± 0.2 | Scores of swelling in knuckle joints (left hind-limb) [6]: 0.0 ± 0.0 | Scores of swelling in knuckle joints (right hind-limb) [6]: 0.4 ± 0.2 | Scores of swelling in the instep (left hind-limb) [6]: 0.0 ± 0.0 | Scores of swelling in the instep (right hind-limb) [6]: 0.0 ± 0.0 | Total scores (left hind-limb) [6]: 0.0 ± 0.0 | Total scores (right hind-limb) [6]: 0.6 ± 0.4 | Redness scores (left hind-limb) [7]: 0.4 ± 0.2 | Redness scores (right hind-limb) [7]: 1.4 ± 0.4 | Scores of swelling in knuckle joints (left hind-limb) [7]: 0.6 ± 0.2 | Scores of swelling in knuckle joints (right hind-limb) [7]: 1.6 ± 0.4 | Scores of swelling in the instep (left hind-limb) [7]: 0.6 ± 0.2 | Scores of swelling in the instep (right hind-limb) [7]: 1.4 ± 0.4 | Total scores (left hind-limb) [7]: 1.6 ± 0.5 | Total scores (right hind-limb) [7]: 4.4 ± 1.5 | Redness scores (left hind-limb) [8]: 0.0 ± 0.0 | Redness scores (right hind-limb) [8]: 0.0 ± 0.0 | Scores of swelling in knuckle joints (left hind-limb) [8]: 0.2 ± 0.2 | Scores of swelling in knuckle joints (right hind-limb) [8]: 0.2 ± 0.2 | Scores of swelling in the instep (left hind-limb) [8]: 0.0 ± 0.0 | Scores of swelling in the instep (right hind-limb) [8]: 0.4 ± 0.2 | Total scores (left hind-limb) [8]: 0.2 ± 0.2 | Total scores (right hind-limb) [8]: 0.6 ± 0.4 | Redness scores (left hind-limb) [9]: 0.2 ± 0.2 | Redness scores (right hind-limb) [9]: 1.0 ± 0.3 | Scores of swelling in knuckle joints (left hind-limb) [9]: 0.8 ± 0.2 | Scores of swelling in knuckle joints (right hind-limb) [9]: 1.2 ± 0.2 | Scores of swelling in the instep (left hind-limb) [9]: 0.2 ± 0.2 | Scores of swelling in the instep (right hind-limb) [9]: 1.4 ± 0.4 | Total scores (left hind-limb) [9]: 1.2 ± 0.6 | Total scores (right hind-limb) [9]: 3.6 ± 1.1 | Redness scores (left hind-limb) [10]: 0.0 ± 0.0 | Redness scores (right hind-limb) [10]: 0.2 ± 0.2 | Scores of swelling in knuckle joints (left hind-limb) [10]: 0.4 ± 0.2 | Scores of swelling in knuckle joints (right hind-limb) [10]: 0.8 ± 0.2 | Scores of swelling in the instep (left hind-limb) [10]: 0.0 ± 0.0 | Scores of swelling in the instep (right hind-limb) [10]: 0.8 ± 0.2 | Total scores (left hind-limb) [10]: 0.4 ± 0.2 | Total scores (right hind-limb) [10]: 1.8 ± 0.2 | Redness scores (left hind-limb) [11]: 0.6 ± 0.4 | Redness scores (right hind-limb) [11]: 1.2 ± 0.2 | Scores of swelling in knuckle joints (left hind-limb) [11]: 0.4 ± 0.2 | Scores of swelling in knuckle joints (right hind-limb) [11]: 0.6 ± 0.2 | Scores of swelling in the instep (left hind-limb) [11]: 0.8 ± 0.6 | Scores of swelling in the instep (right hind-limb) [11]: 2.0 ± 0.4 | Total scores (left hind-limb) [11]: 1.8 ± 1.4 | Total scores (right hind-limb) [11]: 3.8 ± 0.9 | Redness scores (left hind-limb) [12]: 0.4 ± 0.4 | Redness scores (right hind-limb) [12]: 0.8 ± 0.4 | Scores of swelling in knuckle joints (left hind-limb) [12]: 0.6 ± 0.2 | Scores of swelling in knuckle joints (right hind-limb) [12]: 1.0 ± 0.3 | Scores of swelling in the instep (left hind-limb) [12]: 0.4 ± 0.2 | Scores of swelling in the instep (right hind-limb) [12]: 1.4 ± 0.2 | Total scores (left hind-limb) [12]: 1.4 ± 0.7 | Total scores (right hind-limb) [12]: 3.2 ± 0.8 | Redness scores (left hind-limb) [13]: 0.6 ± 0.6 | Redness scores (right hind-limb) [13]: 1.2 ± 0.5 | Scores of swelling in knuckle joints (left hind-limb) [13]: 0.6 ± 0.6 | Scores of swelling in knuckle joints (right hind-limb) [13]: 0.8 ± 0.6 | Scores of swelling in the instep (left hind-limb) [13]: 0.6 ± 0.6 | Scores of swelling in the instep (right hind-limb) [13]: 2.2 ± 0.6 | Total scores (left hind-limb) [13]: 1.8 ± 2.3 | Total scores (right hind-limb) [13]: 4.2 ± 2.0 | Redness scores (left hind-limb) [14]: 0.2 ± 0.2 | Redness scores (right hind-limb) [14]: 0.8 ± 0.2 | Scores of swelling in knuckle joints (left hind-limb) [14]: 0.4 ± 0.2 | Scores of swelling in knuckle joints (right hind-limb) [14]: 0.8 ± 0.2 | Scores of swelling in the instep (left hind-limb) [14]: 0.2 ± 0.2 | Scores of swelling in the instep (right hind-limb) [14]: 1.2 ± 0.4 | Total scores (left hind-limb) [14]: 0.8 ± 0.6 | Total scores (right hind-limb) [14]: 2.8 ± 0.6
